Assays:
PDAC = settings: resected PDAC patients; p < 0.01; cited from earlier work
KPC cells [1] = experiment: Autophagy (LC3B, p62) and PD-L1 expression by IF staining and immunoblotting; format: cell-based, mouse; settings: IRIN 300 µM or OX 500 µM, 24 h
Procedure: KPC cells were seeded in the µ-Slide 8 well. After cell attachment, the cells were treated by IRIN at 300 µM for 24 h. Control treatments included exposure to PBS, chloroquine (32 µM), rapamycin (100 nM) and IFN-γ (10 ng/ml). Before IF staining, the cells were washed with PBS and fixed with 4% paraformaldehyde at RT for 15 minutes. Cells were treated in 1% BSA (blocking reagent) plus 0.2% triton-X100 in PBS for 30 minutes. Subsequently, the cells were incubated with primary antibody that recognizes LC3B (Cell Signaling #2775, 1:200) or p62/SQSTM1 (Cell Signaling #23214, 1:800) in 1% BSA containing PBS solution at 4° C. overnight. The sample was washed twice in PBS and further stained using an Alexa Fluor® 488 conjugated goat anti-rabbit secondary antibody (Thermo Fisher, A-11008, 1:1000) and 5 µg/mL Hoechst 33342 dye for 1 h. Cell surface staining for PD-L1 assessment was carried out in fixed (4% paraformaldehyde) cells, using a staining process similar to the above protocol. Primary PD-L1 antibody (Abcam, ab213480, 1: 500) and Alexa Fluor® 594 conjugated goat anti-rabbit secondary antibody (Thermo Fisher, A-11012, 1:1000) were used. The cells were visualized using a Leica SP8-MD confocal microscope under the 100x objective lens.
To confirm the confocal staining results for LC3B, p62 and PD-L1, western blotting experiments were performed in KPC cells exposed to IRIN (300 µM) or OX (500 µM) for 24 hr. Another experiment also looked at the dose-dependent effect of IRIN at concentrations of 75, 150, 300 and 600 µM for 24 h. Briefly, ~2×10^5 KPC cells per well were seeded in 6 well-plates. After drug exposure, KPC cells were harvested and treated with cold RIPA lysis buffer (Cell Signaling # 9806S), supplemented with a cocktail of protease and phosphatase inhibitors (Cell Signaling #5872) and incubated on ice for 30 mins. After centrifugation of the lysates at 12,000 rpm for 10 min, protein concentration was quantified by a Bradford assay (Biorad). Equal amounts of protein in the supernatants were loaded onto a 10-20% Tris-glycine SDS-PAGE gel (Invitrogen, Grand Island, NY). The proteins were subsequently transferred to a PVDF membrane. The membrane was blocked with 5% non-fat dry milk/TBST, before incubation with primary and HRP-conjugated secondary antibodies. The primary antibodies included: LC3B (Cell Signaling #2775), p62/SQSTM1 (Cell Signaling #5114), NF-κB p65 (Cell Signaling #8242), Phospho-NF-xB p65 (Cell Signaling #3033) and PD-L1 (Abcam, ab213480). The blots were developed by soaking in ECL substrate (Thermo Fisher Scientific). Densitometric analysis of each protein band on the film was quantified by ImageJ software and normalized to the intensity of a corresponding housekeeping protein.
(§1) The of the IRIN silicasome on lysosomal alkalization was performed at drug concentrations of 75 µM and 300 µM in KPC cells. Empty silicasomes (in which a 500 µg/mL particle dose is representative of an encapsulated IRIN dose of 300 µM) was included as control. The assessment of LC3B, p62 and PD-L1 immunoblotting and IF staining were performed in KPC cells during treatment with the IRIN silicasome or empty silicasomes, as described for the free drug.

KPC tumor = experiment: Vaccination experiment with dying chemo-treated KPC cells; format: in vivo, mouse
Procedure: The vaccination schedule is highlighted in FIG. 2, panel C. Eight million KPC cells were seeded in a tissue culture dish. After cellular attachment, IRIN (300 µM or OX (500 µM were added for 24 h. Cells were collected and washed before resuspended in 0.8 mL cold PBS. For vaccination, each mouse received subcutaneous (SC) injection of a 100 µL suspension of chemo-treated cells in the right flank. Control animals received SC injection with 0.1 mL PBS. The vaccination was repeated after 7 days. Fourteen days after the 1st injection, the animals received SC injection of normal KPC cells (1 million cells in 0.1 mL PBS) in the contralateral (left) flank. Tumor growth was measured by a digital caliper every 2-3 days, and the tumor volume calculated according to the formula: length × width^2 /2. Animals were sacrificed on day 26 and the tumors were collected, weighed and fixed in 10% formalin, followed by paraffin embedding and sectioning to derive to 4 µm thick slices for IHC analysis. Primary antibodies to CD8 (#14-0808-82) and FoxP3 (#13-5773-82) were purchased from ThermoFisher. IHC staining was performed in the UCLA Translational Pathology Core Laboratory (TPCL). The slides were scanned and images assessed by using Aperio ImageScope software (Leica).

KPC cells [2] = experiment: Lysosomal alkalization, LysoTracker Red DND 99 confocal microscopy; format: cell-based, mouse; settings: CQ 32 µM, 24 h
Procedure: Approximately 1.5×10^4 KPC cells were seeded in µ-Slide 8 well (ibidi, 80826). To reveal the intracellular distribution of IRIN, attached KPC cells were treated with IRIN (300 µM) for 24 h. Cell membranes were stained using an Alexa Fluor® 594 conjugated WGA dye (Invitrogen™, W11262) at 2 µg/mL for 10 minutes. After washing, the cells were visualized using a Leica SP8-MD confocal microscope under the 100× objective lens. The excitation and emission wavelengths for IRIN were 405 nm and 440~490 nm, respectively^[51]
IRIN-treated KPC cells were washed and replenished with fresh media containing 100 nM DND-99 dye and 5 µg/mL Hoechst 33342 for nuclear staining. The cells were incubated at 37° C. for 0.5 h, followed by washing with phenol red free media. The cells were then visualized using a Leica SP8-MD confocal microscope under the 100× objective lens.
as §1

## Nc1ccn([C@@H]2O[C@H](CO)[C@@H](O)C2(F)F)c(=O)n1 [GEM, gemcitabine]
PDAC
  median overall survival: 35.0 months

## O=C1[O][Pt]2([NH][C@@H]3CCCC[C@H]3[NH]2)[O]C1=O [oxaliplatin]
KPC cells [1]
  PD-L1 expression: failed to upregulate PD-L1 expression
  autophagy flux (Western blotting of LC3 and p62): induced autophagy
KPC tumor; KPC cells treated with 300 µM IRIN or 500 µM OX, p <0.05
  growth of tumor on the opposite flank vs PBS control: improved the shrinkage of the tumor on the opposite flank significantly
KPC tumor; harvested tumors, day 26
  CD8+ staining number (IHC): slight increase
  CD8+/Treg cells ratio (IHC): significantly (p <0.01) increased

## chloroquine diphosphate salt
KPC cells [2]
  alkalizing effect on lysosomal pH: alkalizing effect of IRIN was duplicated

From patent US20230338363A1, “COMBINATION CHEMO-IMMUNOTHERAPY FOR PANCREATIC CANCER USING THE IMMUNOGENIC EFFECTS OF AN IRINOTECAN SILICASOME NANOCARRIER PLUS ANTI-PD-1” (The Regents of the University of California, priority 2020, published 2023)
